System: 883617-216-R-J1-PDC tumor spheroids, viability
Experiment: Anticancer human tumor 883617-216-R-J1-PDC patient-derived bladder carcinoma cell line growth inhibition [PI3K]
Details: spheroids with HUVEC and MSC; for IC50: curve of first compound; for viability, T/C: stronger effect = lower value
Method in brief: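 Three cell types, namely tumor cells, endothelial cells and mesenchymal stem cells, formed each spheroid. Combinations with four PI3K inhibitors were screened at clinically achievable concentrations decreasing by half-log, and spheroid viability was recorded.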

[1] = second compound 0.00316 µM, first compound 0.0316 µM
[2] = second compound 0.00316 µM, first compound 0.1 µM
[3] = second compound 0.00316 µM, first compound 0.316 µM
[4] = second compound 0.00316 µM, first compound 1 µM
[5] = second compound 0.00316 µM, first compound 3.16 µM
[6] = second compound 0.00316 µM, first compound 10 µM
[7] = second compound 0.01 µM, first compound 0.0316 µM
[8] = second compound 0.01 µM, first compound 0.1 µM
[9] = second compound 0.01 µM, first compound 0.316 µM
[10] = second compound 0.01 µM, first compound 1 µM
[11] = second compound 0.01 µM, first compound 3.16 µM
[12] = second compound 0.01 µM, first compound 10 µM
[13] = second compound 0.0316 µM, first compound 0.0316 µM
[14] = second compound 0.0316 µM, first compound 0.1 µM
[15] = second compound 0.0316 µM, first compound 0.316 µM
[16] = second compound 0.0316 µM, first compound 1 µM
[17] = second compound 0.0316 µM, first compound 3.16 µM
[18] = second compound 0.0316 µM, first compound 10 µM
[19] = second compound 0.1 µM, first compound 0.0316 µM
[20] = second compound 0.1 µM, first compound 0.1 µM
[21] = second compound 0.1 µM, first compound 0.316 µM
[22] = second compound 0.1 µM, first compound 1 µM
[23] = second compound 0.1 µM, first compound 3.16 µM
[24] = second compound 0.1 µM, first compound 10 µM
[25] = second compound 0.316 µM, first compound 0.0316 µM
[26] = second compound 0.316 µM, first compound 0.1 µM
[27] = second compound 0.316 µM, first compound 0.316 µM
[28] = second compound 0.316 µM, first compound 1 µM
[29] = second compound 0.316 µM, first compound 3.16 µM
[30] = second compound 0.316 µM, first compound 10 µM
[31] = second compound 1 µM, first compound 0.0316 µM
[32] = second compound 1 µM, first compound 0.1 µM
[33] = second compound 1 µM, first compound 0.316 µM
[34] = second compound 1 µM, first compound 1 µM
[35] = second compound 1 µM, first compound 3.16 µM
[36] = second compound 1 µM, first compound 10 µM
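Also: spheroids exposed to agents for 7 days before the viability read.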

Molecule CC(C)NCC(C(=O)N1CCN(c2ncnc3c2C(C)CC3O)CC1)c1ccc(Cl)cc1 (stereo not drawn) + COc1c(OCCCN2CCOCC2)ccc2c3n(c(=NC(=O)c4cnc(N)nc4)nc12)CCN3 has an IC50 (second compound 0.00316 µM) of 475 nM, an IC50 (second compound 0.01 µM) of 167 nM and an IC50 (second compound 0.0316 µM) of under 31.6 nM. The IC50 (second compound 0.1 µM) was under 31.6 nM, the IC50 (second compound 0.316 µM) was under 31.6 nM and the IC50 (second compound 1 µM) was under 31.6 nM. The viability, T/C [1] was 89.7%, the viability, T/C [2] was 67.4% and the viability, T/C [3] was 59.5%. It also gave a viability, T/C [4] of 41.5%, a viability, T/C [5] of 18.4% and a viability, T/C [6] of 7.44%. For the same molecule, the viability, T/C [7] was 63.5%, the viability, T/C [8] was 53.7% and the viability, T/C [9] was 45.7%. It also gave a viability, T/C [10] of 26.7%, a viability, T/C [11] of 17.2% and a viability, T/C [12] of 6.61%. For the same molecule, the viability, T/C [13] was 44.2%, the viability, T/C [14] was 37.1% and the viability, T/C [15] was 26.4%. For the same molecule, the viability, T/C [16] was 27.7%, the viability, T/C [17] was 8.87% and the viability, T/C [18] was 4.74%. For the same molecule, the viability, T/C [19] was 22%, the viability, T/C [20] was 15% and the viability, T/C [21] was 12.2%. It also gave a viability, T/C [22] of 9.69%, a viability, T/C [23] of 5.3% and a viability, T/C [24] of 3.5%. The viability, T/C [25] was 5.34%, the viability, T/C [26] was 5.49% and the viability, T/C [27] was 4.1%. It also gave a viability, T/C [28] of 4.13%, a viability, T/C [29] of 3.12% and a viability, T/C [30] of 2.45%. The viability, T/C [31] was 2.86%, the viability, T/C [32] was 3.36% and the viability, T/C [33] was 3.4%. It also gave a viability, T/C [34] of 2.86%, a viability, T/C [35] of 3.11% and a viability, T/C [36] of 1.47%.
CCN1CCN(Cc2ccc(Nc3ncc(F)c(-c4cc(F)c5nc(C)n(C(C)C)c5c4)n3)nc2)CC1 + COc1c(OCCCN2CCOCC2)ccc2c3n(c(=NC(=O)c4cnc(N)nc4)nc12)CCN3 gave an IC50 (second compound 0.00316 µM) of 234 nM, an IC50 (second compound 0.01 µM) of 35.6 nM and an IC50 (second compound 0.0316 µM) of under 3.16 nM. For the same molecule, the IC50 (second compound 0.1 µM) was under 3.16 nM, the IC50 (second compound 0.316 µM) was under 3.16 nM and the IC50 (second compound 1 µM) was under 3.16 nM. The viability, T/C (second compound 0.00316 µM, first compound 0.00316 µM) was 91.3%, the viability, T/C (second compound 0.00316 µM, first compound 0.01 µM) was 83.5% and the viability, T/C [1] was 70.2%. The viability, T/C [2] was 57.2%, the viability, T/C [3] was 47.6% and the viability, T/C [4] was 42.3%. The viability, T/C (second compound 0.01 µM, first compound 0.00316 µM) was 65.5%, the viability, T/C (second compound 0.01 µM, first compound 0.01 µM) was 62.2% and the viability, T/C [7] was 51.4%. It also gave a viability, T/C [8] of 40.4%, a viability, T/C [9] of 40.7% and a viability, T/C [10] of 38.8%. The viability, T/C (second compound 0.0316 µM, first compound 0.00316 µM) was 36.3%, the viability, T/C (second compound 0.0316 µM, first compound 0.01 µM) was 31.1% and the viability, T/C [13] was 24.8%. It also gave a viability, T/C [14] of 25.9%, a viability, T/C [15] of 24% and a viability, T/C [16] of 21.5%. It also gave a viability, T/C (second compound 0.1 µM, first compound 0.00316 µM) of 14.6%, a viability, T/C (second compound 0.1 µM, first compound 0.01 µM) of 12.9% and a viability, T/C [19] of 18.3%. The viability, T/C [20] was 11.5%, the viability, T/C [21] was 12.6% and the viability, T/C [22] was 11.8%. It also gave a viability, T/C (second compound 0.316 µM, first compound 0.00316 µM) of 4.77%, a viability, T/C (second compound 0.316 µM, first compound 0.01 µM) of 4.9% and a viability, T/C [25] of 4.63%. It also gave a viability, T/C [26] of 4.67%, a viability, T/C [27] of 4.91% and a viability, T/C [28] of 6.41%. The viability, T/C (second compound 1 µM, first compound 0.00316 µM) was 2.94%, the viability, T/C (second compound 1 µM, first compound 0.01 µM) was 3% and the viability, T/C [31] was 3.07%. For the same molecule, the viability, T/C [32] was 3.49%, the viability, T/C [33] was 4.44% and the viability, T/C [34] was 6.38%.
Work on Cn1ncc(Cl)c1-c1cc(C(=O)NC(CN)Cc2cccc(F)c2)sc1Cl (stereo not drawn) + COc1c(OCCCN2CCOCC2)ccc2c3n(c(=NC(=O)c4cnc(N)nc4)nc12)CCN3 yielded an IC50 (second compound 0.00316 µM) of 473 nM, an IC50 (second compound 0.01 µM) of 241 nM and an IC50 (second compound 0.0316 µM) of under 31.6 nM. It also gave an IC50 (second compound 0.1 µM) of under 31.6 nM, an IC50 (second compound 0.316 µM) of under 31.6 nM and an IC50 (second compound 1 µM) of under 31.6 nM. For the same molecule, the viability, T/C [1] was 83.1%, the viability, T/C [2] was 85.4% and the viability, T/C [3] was 59%. The viability, T/C [4] was 29.6%, the viability, T/C [5] was 13.9% and the viability, T/C [6] was 5.61%. It also gave a viability, T/C [7] of 66%, a viability, T/C [8] of 61.6% and a viability, T/C [9] of 45.4%. It also gave a viability, T/C [10] of 28.1%, a viability, T/C [11] of 10% and a viability, T/C [12] of 4.83%. It also gave a viability, T/C [13] of 33.8%, a viability, T/C [14] of 34.7% and a viability, T/C [15] of 33.2%. For the same molecule, the viability, T/C [16] was 15.1%, the viability, T/C [17] was 8.09% and the viability, T/C [18] was 3.75%. The viability, T/C [19] was 17.8%, the viability, T/C [20] was 12.7% and the viability, T/C [21] was 10.8%. The viability, T/C [22] was 8.94%, the viability, T/C [23] was 5.15% and the viability, T/C [24] was 2.08%. The viability, T/C [25] was 6.38%, the viability, T/C [26] was 4.23% and the viability, T/C [27] was 5.38%. The viability, T/C [28] was 5.78%, the viability, T/C [29] was 2.33% and the viability, T/C [30] was 1.23%. For the same molecule, the viability, T/C [31] was 3.15%, the viability, T/C [32] was 3.32% and the viability, T/C [33] was 2.66%. For the same molecule, the viability, T/C [34] was 2.93%, the viability, T/C [35] was 2.39% and the viability, T/C [36] was 0.58%.
Cn1nccc1Nc1nccc(-c2ccn(C(CO)c3ccc(Cl)c(F)c3)c(=O)c2)n1 (stereo not drawn) + COc1c(OCCCN2CCOCC2)ccc2c3n(c(=NC(=O)c4cnc(N)nc4)nc12)CCN3 gave an IC50 (second compound 0.00316 µM) of 3300 nM, an IC50 (second compound 0.01 µM) of 335 nM and an IC50 (second compound 0.0316 µM) of under 31.6 nM. The IC50 (second compound 0.1 µM) was under 31.6 nM, the IC50 (second compound 0.316 µM) was under 31.6 nM and the IC50 (second compound 1 µM) was under 31.6 nM. For the same molecule, the viability, T/C [1] was 83.4%, the viability, T/C [2] was 76.7% and the viability, T/C [3] was 64.6%. It also gave a viability, T/C [4] of 65%, a viability, T/C [5] of 47.9% and a viability, T/C [6] of 40.4%. For the same molecule, the viability, T/C [7] was 59.4%, the viability, T/C [8] was 59.5% and the viability, T/C [9] was 51%. For the same molecule, the viability, T/C [10] was 40.4%, the viability, T/C [11] was 39.9% and the viability, T/C [12] was 33.8%. The viability, T/C [13] was 39.3%, the viability, T/C [14] was 33.5% and the viability, T/C [15] was 26.7%. The viability, T/C [16] was 27.8%, the viability, T/C [17] was 21.5% and the viability, T/C [18] was 14.3%. For the same molecule, the viability, T/C [19] was 12.8%, the viability, T/C [20] was 12.8% and the viability, T/C [21] was 10.5%. It also gave a viability, T/C [22] of 7.47%, a viability, T/C [23] of 6.96% and a viability, T/C [24] of 6.94%. The viability, T/C [25] was 5.61%, the viability, T/C [26] was 3.51% and the viability, T/C [27] was 4.13%. The viability, T/C [28] was 1.85%, the viability, T/C [29] was 1.07% and the viability, T/C [30] was 1.21%. For the same molecule, the viability, T/C [31] was 2.27%, the viability, T/C [32] was 1.46% and the viability, T/C [33] was 0.6%. It also gave a viability, T/C [34] of 0.25%, a viability, T/C [35] of 0.12% and a viability, T/C [36] of 0.12%.
